Experimental data from publication PMC7914897, “Cytotoxic Potential of a-Azepano- and 3-Amino-3,4-SeCo-Triterpenoids” (International Journal of Molecular Sciences, 2021).

Assays:
[1] = system: HCT-116 (Colon cancer); test: NCI-60 screen (SRB, 48 h); details: Homo sapiens; for GI50: HCT-116; for activity at 10 µM: HCT-116, 48 h, read-out: Growth % of the Most Sensitive Cell Lines
[2] = system: MOLT-4 (Leukemia); test: NCI-60 screen (SRB, 48 h); details: Homo sapiens; for GI50: MOLT-4
[3] = system: Ovarian Cancer subpanel; test: NCI-60 screen, subpanel; details: Homo sapiens; for IC (TGI): 48 h, read-out: TGI MG_MID; for GI50: read-out: GI50 MG_MID; for CC50: read-out: LC50 MG_MID
[4] = system: M14 (Melanoma); test: NCI-60 screen (SRB, 48 h); details: Homo sapiens; for GI50: M14; for IC (TGI): M14, 48 h, read-out: TGI
[5] = system: SNB-75 (CNS cancer); test: NCI-60 screen (SRB, 48 h); details: Homo sapiens; for GI50: SNB-75; for IC (TGI): SNB-75, 48 h, read-out: TGI; for CC50: SNB-75, read-out: LC50
[6] = system: NSC lung cancer subpanel; test: NCI-60 screen, subpanel; details: Homo sapiens; for IC (TGI): 48 h, read-out: TGI MG_MID; for GI50: read-out: GI50 MG_MID; for CC50: read-out: LC50 MG_MID
[7] = system: HOP-92 (NSC lung cancer); test: NCI-60 screen (SRB, 48 h); details: Homo sapiens; for GI50: HOP-92; for IC (TGI): HOP-92, 48 h, read-out: TGI
[8] = system: SR (Leukemia); test: NCI-60 screen (SRB, 48 h); type: cell-based; details: Homo sapiens; for CC50: read-out: LC50 (the source's name)
[9] = system: MDA-MB-468 (Breast cancer); test: cells; details: Homo sapiens; for GI50: MDA-MB-468; for IC (TGI): MDA-MB-468, 48 h, read-out: TGI
[10] = system: SK-OV-3 (Ovarian cancer); test: NCI-60 screen (SRB, 48 h); details: Homo sapiens; for GI50: SK-OV-3; for IC (TGI): SK-OV-3, 48 h, read-out: TGI; for CC50: SK-OV-3, read-out: LC50
[11] = system: UACC-62 (Melanoma); test: NCI-60 screen (SRB, 48 h); details: Homo sapiens; for GI50: UACC-62; for IC (TGI): UACC-62, 48 h, read-out: TGI
[12] = system: MDA-MB-435 (Melanoma); test: NCI-60 screen (SRB, 48 h); type: cell-based; details: Homo sapiens; for IC (TGI): MDA-MB-435, 48 h, read-out: TGI
[13] = system: COLO 205 (Colon cancer); test: NCI-60 screen (SRB, 48 h); details: Homo sapiens; for GI50: COLO 205; for IC (TGI): COLO 205, 48 h, read-out: TGI
[14] = system: CAKI-1 (Renal cancer); test: NCI-60 screen (SRB, 48 h); details: Homo sapiens; for GI50: CAKI-1; for IC (TGI): CAKI-1, 48 h, read-out: TGI; for CC50: CAKI-1, read-out: LC50
[15] = system: HOP-62 (NSC lung cancer); test: NCI-60 screen (SRB, 48 h); details: Homo sapiens; for GI50: HOP-62; for IC (TGI): HOP-62, 48 h, read-out: TGI
[16] = system: PC-3 (Prostate cancer); test: NCI-60 screen (SRB, 48 h); details: Homo sapiens; for GI50: PC-3; for IC (TGI): PC-3, 48 h, read-out: TGI
[17] = system: OVCAR-8 (Ovarian cancer); test: NCI-60 screen (SRB, 48 h); details: Homo sapiens; for GI50: OVCAR-8
[18] = system: RXF 393 (Renal cancer); test: NCI-60 screen (SRB, 48 h); details: Homo sapiens; for GI50: RXF 393; for IC (TGI): RXF 393, 48 h, read-out: TGI; for CC50: RXF 393, read-out: LC50
[19] = system: NIH 3T3 (non-malignant mouse fibroblasts); test: SRB cytotoxicity assay, 72 h; type: cell-based; details: Mus musculus, NIH3T3; NIH 3T3, 72 h, cut-off 30 µM; read-out: EC50
How it was run: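 Cytotoxicity is measured colorimetrically with sulforhodamine B after 72 h exposure to compound concentrations of 0–30 µM, added 24 h after seeding of exponentially growing cells. Survival relative to untreated wells yields EC50.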

[20] = system: OVCAR-5 (Ovarian cancer); test: NCI-60 screen (SRB, 48 h); details: Homo sapiens; for GI50: OVCAR-5; for IC (TGI): OVCAR-5, 48 h, read-out: TGI
[21] = system: SF-268 (CNS cancer); test: NCI-60 screen (SRB, 48 h); details: Homo sapiens; for GI50: SF-268; for IC (TGI): SF-268, 48 h, read-out: TGI; for CC50: SF-268, read-out: LC50
[22] = system: SF-539 (CNS cancer); test: NCI-60 screen (SRB, 48 h); details: Homo sapiens; for GI50: SF-539; for IC (TGI): SF-539, 48 h, read-out: TGI; for CC50: SF-539, read-out: LC50
[23] = system: 786-0 (Renal cancer); test: NCI-60 screen (SRB, 48 h); details: for GI50 / IC (TGI): Homo sapiens; for GI50: 786-0; for IC (TGI): 786-0, 48 h, read-out: TGI

Structure (SMILES): Cc1ccc(S(=O)(=O)OC[C@]23CCC(C)(C)C[C@H]2C2=CC[C@@H]4[C@@]5(C)CCCNC(C)(C)[C@@H]5CC[C@@]4(C)[C@]2(C)CC3)cc1 [Compound 15]
- GI50 [1]: 1.8 µM
- activity at 10 µM [1]: -83%
- GI50 [2]: 1.55 µM
- CC50 ([2]; MOLT-4, read-out: LC50): > 100 µM
- IC (TGI) [3]: 3.35 µM
- GI50 [3]: 1.74 µM
- CC50 [3]: 6.03 µM
- GI50 [4]: 1.87 µM
- IC (TGI) [4]: 3.58 µM
- GI50 [5]: 1.48 µM
- IC (TGI) [5]: 2.94 µM
- CC50 [5]: 5.85 µM
- IC (TGI) [6]: 3.42 µM
- GI50 [6]: 3.14 µM
- CC50 [6]: 53.4 µM
- GI50 [7]: 1.35 µM
- IC (TGI) [7]: 2.8 µM
- GI50 [8]: 0.34 µM
- CC50 [8]: > 100 µM
- GI50 [9]: 1.56 µM
- IC (TGI) [9]: 3.13 µM
- GI50 [10]: 1.76 µM
- IC (TGI) [10]: 3.26 µM
- CC50 [10]: 6.03 µM
- GI50 [11]: 1.68 µM
- IC (TGI) [11]: 3.2 µM
- GI50 ([12]; MDA-MB-435): 1.61 µM
- IC (TGI) [12]: 2.97 µM
- GI50 [13]: 1.63 µM
- IC (TGI) [13]: 3.19 µM
- GI50 [14]: 1.45 µM
- IC (TGI) [14]: 2.82 µM
- CC50 [14]: 5.46 µM
- GI50 [15]: 1.81 µM
- IC (TGI) [15]: 3.56 µM
- GI50 [16]: 1.66 µM
- IC (TGI) [16]: 3.16 µM
- GI50 [17]: 1.99 µM
- GI50 [18]: 1.38 µM
- IC (TGI) [18]: 2.78 µM
- CC50 [18]: 5.59 µM
- EC50 [19]: 2.76 ± 0.3 µM
- GI50 [20]: 1.61 µM
- IC (TGI) [20]: 3.01 µM
- GI50 [21]: 2.32 µM
- IC (TGI) [21]: 8.44 µM
- CC50 [21]: 67.9 µM
- GI50 [22]: 1.71 µM
- IC (TGI) [22]: 3.15 µM
- CC50 [22]: 5.79 µM
- GI50 [23]: 1.85 µM
- IC (TGI) [23]: 4.14 µM

Structure (SMILES): Cc1ccc(S(=O)(=O)OC[C@@]2(C)CC[C@]3(C)CC[C@]4(C)C(=C3C2)C=C[C@@H]2[C@@]3(C)CCCNC(C)(C)[C@@H]3CC[C@]24C)cc1 [Compound 16]
- GI50 [1]: 1.54 µM
- activity at 10 µM [1]: -91.5%
- GI50 [2]: 1.84 µM
- IC (TGI) ([2]; MOLT-4, 48 h, read-out: TGI): 4.16 µM
- IC (TGI) [3]: 3.68 µM
- GI50 [3]: 1.86 µM
- CC50 [3]: 29.4 µM
- GI50 [4]: 1.8 µM
- IC (TGI) [4]: 3.62 µM
- GI50 [5]: 1.61 µM
- IC (TGI) [5]: 3.1 µM
- CC50 [5]: 5.97 µM
- IC (TGI) [6]: 3.36 µM
- GI50 [6]: 1.72 µM
- CC50 [6]: 6.23 µM
- GI50 [7]: 1.45 µM
- IC (TGI) [7]: 2.97 µM
- CC50 ([7]; HOP-92, read-out: LC50): 6.11 µM
- GI50 [8]: 0.31 µM
- CC50 [8]: > 100 µM
- GI50 [9]: 1.59 µM
- IC (TGI) [9]: 3.22 µM
- CC50 ([9]; MDA-MB-468, read-out: LC50): 6.51 µM
- GI50 [10]: 1.79 µM
- IC (TGI) [10]: 3.25 µM
- CC50 [10]: 5.91 µM
- GI50 [11]: 1.84 µM
- IC (TGI) [11]: 3.39 µM
- GI50 ([12]; MDA-MB-435): 1.64 µM
- IC (TGI) [12]: 3.07 µM
- CC50 ([12]; MDA-MB-435, read-out: LC50 (the source's name)): 5.75 µM
- GI50 [13]: 1.62 µM
- IC (TGI) [13]: 3.26 µM
- GI50 [14]: 1.61 µM
- IC (TGI) [14]: 3.06 µM
- CC50 [14]: 5.81 µM
- GI50 [15]: 1.84 µM
- IC (TGI) [15]: 3.59 µM
- GI50 [16]: 1.53 µM
- IC (TGI) [16]: 2.98 µM
- CC50 ([16]; PC-3, read-out: LC50): 5.82 µM
- GI50 [17]: 2.12 µM
- IC (TGI) ([17]; OVCAR-8, 48 h, read-out: TGI): 4.57 µM
- GI50 [18]: 1.35 µM
- IC (TGI) [18]: 2.86 µM
- CC50 [18]: 6.05 µM
- EC50 [19]: 2.45 ± 0.1 µM
- GI50 [20]: 1.77 µM
- IC (TGI) [20]: 3.21 µM
- CC50 ([20]; OVCAR-5, read-out: LC50): 5.81 µM
- GI50 [21]: 1.95 µM
- IC (TGI) [21]: 4.12 µM
- CC50 [21]: 8.68 µM
- GI50 [22]: 1.71 µM
- IC (TGI) [22]: 3.11 µM
- CC50 [22]: 5.66 µM
- Growth % of the Most Sensitive Cell Lines ([23]; 786-0, 1 dose 10 µM): −90.69%
- GI50 [23]: 1.84 µM
- IC (TGI) [23]: 3.51 µM
